Measurements published in the Deep4Chem optical property database.
Values belong to the compound of their own block, whether it stands above or below them.

Experiment: solvent given as SMILES

absorption maximum (in C1CCCCC1): 433 nm
absorption maximum (in CC#N): 444 nm
absorption maximum (in CCO): 449 nm
absorption maximum (in c1ccccc1): 445 nm
SMILES: CN(C)c1cccc2c1C(=O)c1ccccc1-2

absorption maximum (in C1CCCCC1): 380 nm
absorption maximum (in CO): 390 nm
SMILES: CN(C)c1ccc(/C=C/c2nc3ccccc3o2)cc1

absorption maximum (in CCO): 341 nm
SMILES: O=Cc1ccc(-c2ccc(O)c(-c3nc4ccccc4s3)c2)o1

absorption maximum (in ClC(Cl)Cl): 278 nm
SMILES: c1ccc(-c2ccnc(-c3ccccc3)n2)cc1

absorption maximum (in CCO): 442 nm
SMILES: CCCCOc1c(C=C2Sc3ccccc3N2C)c(=O)c1=O

absorption maximum (in C1CCCCC1): 375 nm
absorption maximum (in CC#N): 375 nm
absorption maximum (in CO): 366 nm
absorption maximum (in ClCCl): 382 nm
absorption maximum (in O): 375 nm
SMILES: c1ccc(-c2nc(-c3c4ccccc4cc4ccccc34)n3ccccc23)cc1

absorption maximum (in CC#N): 355 nm
SMILES: CCOC(=O)c1c(NC(C)(C)C)oc(-c2ccc(-c3ccccc3)cc2)c1C(=O)OCC

absorption maximum (in CO): 312 nm
SMILES: O=C(O)c1ccc(-c2nc(-c3ccccc3)c(-c3ccccc3)[nH]2)cc1

absorption maximum (in C1CCCCC1): 362 nm
absorption maximum (in CC#N): 355 nm
absorption maximum (in CO): 350 nm
absorption maximum (in ClCCl): 357 nm
absorption maximum (in O): 367 nm
SMILES: c1ccc(-c2nc(-c3cccc4ccccc34)n3ccccc23)cc1

absorption maximum (in CCOC(C)=O): 383 nm
SMILES: CCn1ncc2c3c(C#N)c4c5ccccc5n(C)c4nc3ccc21

absorption maximum (in CO): 766 nm
SMILES: CC1(C)C(/C=C/C2=C(Oc3ccc(CCN=C=S)cc3I)C(=C/C=C3/N(CCCS(=O)(=O)[O-])c4ccccc4C3(C)C)/CCC2)=[N+](CCCS(=O)(=O)[O-])c2ccccc21

absorption maximum (in CC#N): 276 nm
absorption maximum (in CO): 276 nm
absorption maximum (in O): 275 nm
SMILES: CNCCCN1c2ccccc2CCc2ccccc21

absorption maximum (in CC#N): 412 nm
SMILES: F[B-]1(F)OC(c2ccc3c(c2)Cc2ccccc2-3)=CC(c2ccccc2)=[O+]1

absorption maximum (in C1CCOC1): 307 nm
absorption maximum (in CC(C)O): 303 nm
absorption maximum (in CO): 303 nm
absorption maximum (in CS(C)=O): 306 nm
absorption maximum (in ClC(Cl)Cl): 310 nm
absorption maximum (in ClCCl): 309 nm
SMILES: Cc1ccc(-n2c(-c3ccccc3O)nc(-c3ccccc3O)c2-c2ccccc2O)cc1

absorption maximum (in CC#N): 331 nm
SMILES: FC(F)(F)c1ccc(-c2pc3ccccc3s2)cc1 (centres undefined)

Continued, compound first:

SMILES: CC(C)(C)c1ccc(Oc2cc3c4c(cc(Oc5ccc(C(C)(C)C)cc5)c5c6c(Oc7ccc(C(C)(C)C)cc7)cc7c8c(cc(Oc9ccc(C(C)(C)C)cc9)c(c2c45)c86)C(=O)N(c2ccccc2)C7=O)C(=O)N(c2ccccc2)C3=O)cc1
absorption maximum (in ClC(Cl)Cl): 586 nm

SMILES: CN(C)c1ccc2nc(-c3ccc(C(=O)OC[C@H](NC(=O)OC(C)(C)C)C(=O)OCc4ccccc4)cc3)sc2c1
absorption maximum (in C1CCCCC1): 390 nm
absorption maximum (in CC#N): 398 nm
absorption maximum (in CC(C)O): 397 nm
absorption maximum (in CO): 397 nm
absorption maximum (in CS(C)=O): 408 nm
absorption maximum (in ClC(Cl)Cl): 401 nm
absorption maximum (in c1ccccc1): 397 nm

SMILES: Cc1ccc(C)cc1
absorption maximum (in C1CCCCC1): 262.88 nm

SMILES: CC(C)(C)NC(=O)c1cccc2ccc3c4ccc(F)cc4c4cc(F)ccc4c3c12
absorption maximum (in ClCCl): 329 nm

SMILES: CC1=C(c2cccs2)C(C)=[N+]2C1=C(c1ccccc1)c1c(C)c(-c3cccs3)c(C)n1[B-]2(F)F
absorption maximum (in CO): 521 nm
absorption maximum (in Cc1ccccc1): 530 nm
absorption maximum (in ClCCl): 527 nm

SMILES: CCCN1c2ccc(C#CC3=C4C=CC=[N+]4[B-](F)(F)n4cccc43)cc2Sc2cc(C#CC3=C4C=CC=[N+]4[B-](F)(F)n4cccc43)ccc21
absorption maximum (in ClCCl): 542 nm

SMILES: CCCCCCc1ccc2c3c(ccc2c1)O[B-](F)(F)[N+](c1cc([N+]2=Cc4c(ccc5cc(CCCCCC)ccc45)O[B-]2(F)F)cc([N+]2=Cc4c(ccc5cc(CCCCCC)ccc45)O[B-]2(F)F)c1)=C3
absorption maximum (in C1CCOC1): 418 nm
absorption maximum (in CC#N): 419 nm
absorption maximum (in Cc1ccccc1): 433 nm
absorption maximum (in ClCCl): 428 nm

SMILES: COc1ccc(N(c2ccccc2)c2cc3ccc4cc(N(c5ccccc5)c5ccc(OC)cc5)cc5ccc(c2)c3c45)cc1
absorption maximum (in Cc1ccccc1): 453 nm

SMILES: CC1=c2c3c4cccc5cccc(c=3c(C)[n+]2[B-](F)(F)n2c(C)c3cc6c(-c7ccccc7)c7c(c(-c8ccccc8)c6cc3c21)-c1cccc2cccc-7c12)c54
absorption maximum (in ClCCl): 658 nm

SMILES: Cc1ccc(-c2cc(C)[o+]c(C)c2)cc1
absorption maximum (in CC#N): 347 nm
absorption maximum (in ClCCl): 365 nm

SMILES: CC(C)c1cccc(C(C)C)c1-n1c(=O)c2ccc3c4ccc5c(=O)n(-c6c(C(C)C)cccc6C(C)C)c(=O)c6cc7c(-c8ccccn8)nc8cc(c1=O)c2c3c8c7c4c56
absorption maximum (in ClC(Cl)Cl): 474 nm

SMILES: COc1cc2c(cc1-c1ccc(C(F)(F)F)cc1)Cc1c3c(c4c(c1-2)-c1cc(OC)c(-c2ccc(C(F)(F)F)cc2)cc1C4)C(=O)N(CCC(C)C)C3=O
absorption maximum (in C1CCOC1): 404 nm

SMILES: COC(=O)C1=C(C(=O)OC)C2(c3ccccc3-c3c(Br)cc(Br)cc32)C2(/C=C/c3ccc(Cl)cc3)c3cc(OC)c(OC)cc3CCN12 (centres undefined)
absorption maximum (in ClCCl): 328 nm

SMILES: CCN(CC)c1ccc2cc(/C=C(\C#N)c3nc4ccccc4s3)c(=O)oc2c1
absorption maximum (in C1COCCO1): 498 nm
absorption maximum (in CC#N): 506 nm
absorption maximum (in CCO): 511 nm
absorption maximum (in CCOC(C)=O): 504 nm
absorption maximum (in CN(C)C=O): 528 nm
absorption maximum (in CO): 512 nm
absorption maximum (in CS(C)=O): 525 nm
absorption maximum (in Cc1ccccc1): 501 nm
absorption maximum (in ClCCl): 509 nm

SMILES: Nc1ccc2[nH]ncc2c1
absorption maximum (in C1CCCCC1): 326 nm

SMILES: CN(C)c1ccc(/C=C/c2ccc(-c3cc(-c4ccccn4)nc(-c4ccccn4)c3)cc2)cc1
absorption maximum (in C1CCOC1): 375 nm
absorption maximum (in C1COCCO1): 369 nm
absorption maximum (in CC#N): 379 nm
absorption maximum (in CCO): 379 nm
absorption maximum (in ClCCl): 381 nm

SMILES: CC1=C(c2ccc(-c3nc(-c4ccccc4)c(-c4ccccc4)[nH]3)cc2)S[C@]2(C)C1=C1C(=C3c4ccccc4C(C)[C@]32C)C(F)(F)C(F)(F)C1(F)F (some centres undefined)
absorption maximum (in C1CCOC1): 589 nm

SMILES: c1ccc(-c2cc(-c3ccc(N4c5ccccc5C(c5ccccc5)(c5ccccc5)c5ccccc54)cn3)nc(-c3ccccc3)n2)cc1
absorption maximum (in Cc1ccccc1): 378.85 nm

SMILES: CCCCOC(=O)c1cc(Cl)c2c3c(Cl)cc4c5c(cc(Cl)c(c6c(Cl)cc(C(=O)OCCCC)c1c26)c53)C(=O)N(c1c(C(C)C)cccc1C(C)C)C4=O
absorption maximum (in Cc1ccccc1): 496 nm

SMILES: CC(C)[Si](C#Cc1ccc(C#C[Si](C(C)C)(C(C)C)C(C)C)c2nc3cc4c(cc3nc12)[C@H]1c2ccccc2[C@@H]4c2ccccc21)(C(C)C)C(C)C
absorption maximum (in CCCCCC): 435 nm
absorption maximum (in ClCCl): 435 nm

SMILES: CCc1c(C)c2n(c1C)[B-](F)(F)[N+]1=C(c3ccc[nH]3)c3ccccc3C1=C2
absorption maximum (in C1CCOC1): 613 nm
absorption maximum (in CC#N): 608 nm
absorption maximum (in CCCCCC): 614 nm
absorption maximum (in CO): 609 nm
absorption maximum (in Cc1ccccc1): 620 nm
absorption maximum (in ClCCl): 616 nm

SMILES: CCCCCCCCCCCCn1cccc1/C=C/c1ccc(/C=C/c2cccn2CCCCCCCCCCCC)cc1
absorption maximum (in Cc1ccccc1): 398 nm

SMILES: COC(=O)/C(C#N)=c1\s/c(=c2/s/c(=C(/C#N)C(=O)OC)c3cc(-c4ccc(OC)cc4)sc23)c2sc(-c3ccc(OC)cc3)cc12
absorption maximum (in Cc1ccccc1): 628 nm

SMILES: CC(=O)Nc1cc2ccc3cccc4ccc(c1)c2c34
absorption maximum (in CC#N): 334 nm
absorption maximum (in CCCCOCCCC): 336 nm
absorption maximum (in CO): 334 nm

SMILES: Cc1ccc(-c2c3nc(c(-c4ccc(C)cc4)c4ccc([nH]4)c(-c4ccc(C)cc4)c4nc(c(-c5ccc(C)cc5)c5ccc2[nH]5)C=C4N2CCOCC2)C=C3)cc1
absorption maximum (in CS(C)=O): 653 nm

SMILES: CC(C)(C)c1ccc2c(c1)c1cc(C(C)(C)C)ccc1n2-c1ccc(N(c2ccc(-c3ccc(-c4ccc(-c5ccc(-c6ccc(N(c7ccc(-n8c9ccc(C(C)(C)C)cc9c9cc(C(C)(C)C)ccc98)cc7)c7ccc(-n8c9ccc(C(C)(C)C)cc9c9cc(C(C)(C)C)ccc98)cc7)cc6)s5)c5nsnc45)s3)cc2)c2ccc(-n3c4ccc(C(C)(C)C)cc4c4cc(C(C)(C)C)ccc43)cc2)cc1
absorption maximum (in ClCCl): 528 nm

SMILES: F[B-]1(F)n2c(c3cccc4cccc2c43)=Nc2ccc3ccccc3[n+]21
absorption maximum (in C1CCOC1): 486 nm
absorption maximum (in CC#N): 481 nm
absorption maximum (in CCCCCC): 490 nm
absorption maximum (in Cc1ccccc1): 490 nm
absorption maximum (in ClCCl): 455 nm

SMILES: O=C(c1ccncc1)c1ccc(-n2c3ccc(-n4c5ccccc5c5ccccc54)cc3c3cc(-n4c5ccccc5c5ccccc54)ccc32)cc1
absorption maximum (in C1CCOC1): 341.83 nm
absorption maximum (in Cc1ccccc1): 360.08 nm
absorption maximum (in ClCCl): 341.83 nm

SMILES: CCn1c2ccccc2c2cc(-c3cc(-c4ccc5c(c4)c4ccccc4n5CC)ncn3)ccc21
absorption maximum (in C1CCOC1): 360 nm
absorption maximum (in CCOC(C)=O): 359 nm
absorption maximum (in CN(C)C=O): 363 nm
absorption maximum (in Cc1ccccc1): 360 nm
absorption maximum (in ClCCl): 360 nm

SMILES: CC(C)c1cc(C(C)C)c(B2c3cc(-n4c5ccc(C(C)(C)C)cc5c5cc(C(C)(C)C)ccc54)ccc3N(c3ccccc3)c3ccc(-n4c5ccc(C(C)(C)C)cc5c5cc(C(C)(C)C)ccc54)cc32)c(C(C)C)c1
absorption maximum (in C1CCCCC1): 410.54 nm

SMILES: O=C(/C=C(\O)c1ccc(N2c3ccccc3Oc3ccccc32)cc1)c1ccc(N2c3ccccc3Oc3ccccc32)cc1
absorption maximum (in Cc1ccccc1): 441 nm

SMILES: c1ccc(N(c2ccccc2)c2ccc(-c3cccc4nc5ccccc5cc34)cc2)cc1
absorption maximum (in C1CCOC1): 391 nm
absorption maximum (in CC#N): 390 nm
absorption maximum (in CC(C)OC(C)C): 389 nm
absorption maximum (in CCCCCC): 386 nm
absorption maximum (in CCCCOCCCC): 390 nm
absorption maximum (in CCN(CC)CC): 389 nm
absorption maximum (in CCOC(C)=O): 390 nm
absorption maximum (in CCOCC): 386 nm
absorption maximum (in CN(C)C=O): 390 nm
absorption maximum (in ClCCl): 396 nm

SMILES: CCOC(=O)c1c(-c2cc3ccccc3oc2=O)nn(-c2ccc(Br)cc2)c1C(=O)OCC
absorption maximum (in ClCCl): 323 nm

SMILES: CCCCCCOc1cc(N(CC)CC)ccc1/C=C/C(=C(C#N)C#N)c1ccc2c(c1)c1ccccc1n2CC
absorption maximum (in ClCCl): 504 nm
